In patent US20090311695A1, “Method” (priority 2008, published 2009):
Entries after “also recorded” stand apart in the source; their conditions may differ. Like-named read-outs stand apart in the source and are kept apart here.

Key:
[1] = test system: translation readthrough of PTC in exon 12 of BMPR2; type: cell-based; settings: for population of dual-fluorescence cells (FACS): 293 cells transfected with pTN142; for ratio of DsRed-Express and GFP production (efficiency of readthrough), plate readers: fluorescence monochrome and filter plate readers, data not shown
Excerpt: (§1) (A) An outline of the single cell-based translation readthrough assay. The principle of the reporter system is similar to that mentioned in FIG. 2 with the exception that it contains a translation termination signal in the exon 12. In the event of translation termination at the internal PTC, a DsRed-Express protein will be generated whilst readthrough will produce a fusion dual-fluorescence protein (DsRed Express and GFP). Thus the ratio of two fluorescence intensities determines the efficiency of readthrough. […] (C) Cell expressing fluorescence proteins were analyzed with FACS. Cell transfected with pTN139 generated the highest population of dual-fluorescence cells (FIG. 5Civ), whilst pTN142 produced no or few dual-fluorescence cells. […] GFP (FIG. 5Cii) and DsRed-Express (FIG. 5Ciii) proteins expressing cells were used as fluorescence positive control, whilst untransfected cells (FIG. 5Ci) were used as negative control. (FIG. 5D) The outline of the enzymatic reporter was published elsewhere (Kollmus et al., 1996, Nasim et al., 2000). In brief, translation termination in the internal stop signal generates β-gal protein. In the event of readthrough, a β-gal-luciferase fusion protein will be produced. The ratio of these two proteins was used as the efficiency of readthrough event. For this purpose, two independent constructs were used in our experiment. Construct H8 (pBPLUGA; Kollmus et al., 1996) contains a 17 bp DNA fragment containing an in-frame stop signal. H8A construct (Nasim et al., 2000) is similar to H8 with the exception that it contains a 91 bp DNA fragment.
Single-cell based dual-fluorescence splicing assay constructs were generated by replacing exon 9 of plasmid pTN136 with exon 12 of BMPR2 gene using PCR mutagenesis (14). The resultant splicing unit was cloned into Xho I and Bam HI sites of DsRed Express-GFP vector (Siskoglu and Nasim, unpublished data) and designated as pTN139. Further plasmids pTN140, pTN141, pTN142 and pTN143 bearing mutations in exon 12 at position c.2292insA, c.2386delG, c.2620G>T and c.2695C>T, respectively were generated. A double intron splicing unit was constructed by fusing an additional splicing unit of HC9 (15) at the 3′end of the Ad-Exon 12 unit of pTN136. The splicing unit of HC9 comprises the last 17 nucleotides of the non-muscle exon (NM) of human TPM3 gene together with the following 80-nucleotide intron, which was joined to a fragment of human dystrophin gene containing the last 260 nucleotides of intron 11 followed by the 100 nucleotides of exon 12. The double-intron splicing unit was cloned into EcoRI and KpnI sites of DsRed-Express-GFP vector and designated as pTN153. Plasmid pTN155 is a derivative of pTN153 and harbours a mutation in exon 12 at position c.2386delG.
Gene Transfer, cell culture, enzymatic assay, fluorescence microscopy and fluorescence activated cell sorting (FACS) were carried as described elsewhere (11), (15), (17). Amount of plasmid DNA transfected into HEK293 cell line varied from (from 30 ng to 1 μg) assay to assay.
In addition to PAH, there are also more than 1800 genetic disorders caused by nonsense mutation. Two approaches are currently available to overcome nonsense-associated genetic diseases. […] The aim of other approach is to suppress pre-mature termination; in other words to promote translation readthrough. As the dual-fluorescence assay was successfully utilized to characterize the PTC, we next wished to investigate whether the system can be used to identify factors that promote translation readthrough. To achieve this, we introduced a nonsense mutation into the exon 12 of the BMPR2 gene in such a way that it incorporates a PTC (FIG. 5A). In the event of readthrough, a fusion dual-fluorescence protein (DsRed Express and GFP) will be produced, whilst translation termination generates only DsRed-Express protein. Thus the ratio of two fluorescence intensities determines the efficiency of readthrough. […]

[2] = test system: translation readthrough of in-frame stop signal; assay: enzyme-based dual-reporter (β-gal-luciferase) readthrough assay, constructs H8 and H8A; type: cell-based
Excerpt: as §1, with “(FIG. 5D) The outline of the enzymatic reporter was published elsewhere (Kollmus et al., 1996, Nasim et al., 2000). In brief, translation termination in the internal stop signal generates β-gal protein.” left out, “For this purpose, two independent constructs were used in our experiment. Construct H8 (pBPLUGA; Kollmus et al., 1996) contains a 17 bp DNA fragment containing an in-frame stop signal. H8A construct (Nasim et al., 2000) is similar to H8 with the exception that it contains a 91 bp DNA fragment.” left out
To further validate the efficiency determined by fluorescence assays, we employed an enzyme-based reporter assay. […] In the event of translation termination, β-gal protein is generated, whilst readthrough produces a β-gal and luciferase fusion protein. […]

[3] = test system: translation readthrough of in-frame PTC; assay: swapped GFP-DsRedExpress dual-fluorescence readthrough assay, plate reader; type: cell-based; settings: HEK293 cells, medium with 0.1% fetal bovine serum, 3-5 days, BMG Labtech plate reader
Excerpt: An outline of the dual-fluorescence reporter. The underlying principle of the reporter is similar to that mentioned above with the exception that the DsRed-express gene is located downstream of the GFP reporter (FIG. 7A). Following transfection the reporter harbouring an in-frame PTC produced only GFP protein (FIG. 7B). The reporter produced both GFP and DsRedExpress proteins following the exchange of the PTC to a sense codon.
A step-by-step outline of the translation readthrough assay (FIG. 8A).
A potential complication of the fluorescence approach was that of an autofluorescence which might interfere with the GFP fluorescence. To address this potential limitation, another set of vector was constructed. In this set of vectors the GFP and DsRed-Express reporters were swapped in such that the GFP is expressed regardless of translation readthrough, whilst the readthrough activates the expression of DsRed-Express protein (FIG. 7A). […] The reporter produced both GFP and DsRed-Express dual-fluorescences once the PTC codon was changed to a sense codon.
We next wished to determine the ratio of DsRed-Express and GFP production, which represents the efficiency of readthrough (FIG. 8A). […] The growth medium was discarded, cells were washed with PBS and the fluorescence intensities were determined using a fluorescence (BMG Labtech) plate reader.

[4] = test system: nonsense mediated RNA decay; assay: β-galactosidase reporter based NMD assay (gal-luc ratio) with PTC bearing double intron splicing unit; type: cell-based; settings: reporter with c.2386delG or c.2292insA PTC, after treatment with translation/NMD inhibitor
Excerpt: (A) The test system for determining nonsense mediated RNA decay in mammalian cells based on the reporter gene encoding β-galactosidase, which was fused in-frame with the PTC (c.2386delG, c.2292insA) bearing recombinant double intron splicing unit (FIG. 4A). Plasmids bearing c.2292insA (pTN147) and c.2386delG (pTN148) mutations were transfected into HE 293 cells and grown in the presence or absence of NMD inhibitors including puromycin and cycloheximide. The treatments increased the gal-luc ratio of the reporter constructs between 5 and 20 fold (FIG. 4B) compared with untreated control. Compared with cells transfected with the reporter alone, the gal-luc ratio increased between 3 and 6 fold when hUpf1 RNA was knock down by RNAi (FIG. 4C).
Constructs for determining NMD were generated by fusing the double-intron splicing unit of pTN155 at the end of β-galactosidase reporter gene. The double-intron splicing intron was cloned in two steps into pBPLUGA (16). First the splicing unit of HC9 as described above was PCR amplified and cloned into KpnI and BamHI sites of pBPLUGA. The splicing unit of pTN136 was then cloned into SalI/XhoI and BamHI sites of the newly constructed plasmid and designated as pTN148. […]
Gene Transfer, cell culture, enzymatic assay, fluorescence microscopy and fluorescence activated cell sorting (FACS) were carried as described elsewhere (11), (15), (17). […]

[5] = test system: nonsense codon read-through; settings: literature values; cited from earlier work

Molecule	population of dual-fluorescence cells (FACS) [1]	ratio of DsRed-Express and GFP production (efficiency of readthrough), plate readers [1]	ratio of gal-luc activity (readthrough efficiency) [2]	increase in the reporter protein [4]	other results
gentamicin	significantly high population of dual-fluorescence cells; also recorded: markedly increased	promoted translation readthrough	promoted readthrough efficiency		ratio of GFP and DsRedExpress fluorescence intensities (efficiency of readthrough) [3]: promoted the ratio of GFP and DsRedExpress fluorescence intensities; also recorded: promoted translation readthrough
CN[C@@H]1[C@@H](O)[C@@H](O[C@@H]2[C@@H](O)[C@H](O[C@H]3O[C@H]([C@@H](C)O)[C@@H](O)[C@H](O)[C@H]3N)[C@@H](N)C[C@H]2N)OC[C@]1(C)O [G418 sulphate]	markedly increased	promoted translation readthrough	promoted readthrough efficiency; also recorded: markedly increased		population of dual-fluorescence cells (FACS) ([1]; listed as G418): significantly high population of dual-fluorescence cells; dual-fluorescence of cells ([1]; 293 cells, PTC construct, 5 days after treatment): generated dual-fluorescence
C[C@@H]1C[C@@H]([C@H](O)CC2CC(=O)NC(=O)C2)C(=O)[C@@H](C)C1 [cycloheximide]				5 fold	
O=C(O)c1cccc(-c2noc(-c3ccccc3F)n2)c1 [PTC124]					read-through efficiencies [5]: 2-10%
COc1ccc(C[C@H](N)C(=O)N[C@H]2[C@@H](O)[C@H](n3cnc4c(N(C)C)ncnc43)O[C@@H]2CO)cc1 [puromycin]				20 fold	
